Molecular target: IDO (Homo sapiens, UniProt P14902)
Test: IDO enzyme activity assay
Assay type: biochemical
Conditions: read-out: Potency: IDO IC50
Procedure: An IDO enzyme assay and cellular production of kynurenine (KYN) is described in Sarkar, S. A. et al., Diabetes 56:72-79 (2007). Briefly, all chemicals can be purchased from Sigma-Aldrich (St. Louis, Mo.) unless specified otherwise. Groups of 1,000 human islets can be cultured for 24 h in 1 mL medium with cytokines, recovered by centrifugation for 5 min at 800×g and sonicated in 150 μL PBS containing a protease inhibitor cocktail (Set 2; Calbiochem, EMD Biosciences, San Diego, Calif.). The sonicate can be centrifuged for 10 min at 10,000×g, and the supernatant can be assayed in triplicate by incubating a 40 μl sample with an equal volume of 100 mmol/L potassium phosphate buffer, pH 6.5, containing 40 mmol/L ascorbic acid (neutralized to pH 7.0), 100 μmol/L methylene blue, 200 μg/mL catalase, and 400 μmol/l L-Trp for 30 min at 37° C. The assay can be terminated by the addition of 16 μL 30% (w/v) trichloroacetic acid (TCA) and further incubated at 60° C. for 15 min to hydrolyze N-formylkynurenine to KYN. The mixture can then be centrifuged at 12,000 rpm for 15 min, and KYN can be quantified by mixing equal volume of supernatant with 2% (w/v) Ehrlich's reagent in glacial acetic acid in 96-well microtiter plate and reading the absorbance at 480 nm using L-KYN as standard. Protein in the islet samples can be quantified by Bio-Rad Protein assay at 595 nm. For the detection of L-KYN in the islet culture supernatants, proteins can be precipitated with 5% (w/v) TCA and centrifuged at 12,000 rpm for 15 min, and determination of KYN in the supernatant with Ehrlich's reagent can be determined as described above. IL-4 ([…]; 500-2,000 units/mL) and 1-α-methyl Trp (1-MT; 40 μmol/L) can be added to the incubation media as indicated. This assay can also form the basis of a cell-based assay, and may be quantified via LCMS/MS as an alternative to UV/Vis detection.
cDNA clones for both human and mouse IDO have been isolated and verified by sequencing and are commercially available. In order to prepare IDO for biochemical studies, C-terminal His-tagged IDO protein can be produced in E. coli using the IPTG-inducible pET5a vector system and isolated over a nickel column. The yield of the partially purified protein can be verified by gel electrophoresis and the concentration estimated by comparison to protein standards. To assay IDO enzymatic activity, a 96-well plate spectraphotometric assay for kynurenine production can be run following published procedures (see, e.g., Littlejohn, T. K., et al. (2000) Prot. Exp. Purif. 19:22-29). To screen for IDO inhibitory activity, compounds can be evaluated at a single concentration of, for example, 200 μM against 50 ng of IDO enzyme in 100 μL reaction volumes with tryptophan added at increasing concentrations at, for example, 0, 2, 20, and 200 μM. Kynurenine production can be measured at 1 hour.

IDO, sequence (P14902 whole entry): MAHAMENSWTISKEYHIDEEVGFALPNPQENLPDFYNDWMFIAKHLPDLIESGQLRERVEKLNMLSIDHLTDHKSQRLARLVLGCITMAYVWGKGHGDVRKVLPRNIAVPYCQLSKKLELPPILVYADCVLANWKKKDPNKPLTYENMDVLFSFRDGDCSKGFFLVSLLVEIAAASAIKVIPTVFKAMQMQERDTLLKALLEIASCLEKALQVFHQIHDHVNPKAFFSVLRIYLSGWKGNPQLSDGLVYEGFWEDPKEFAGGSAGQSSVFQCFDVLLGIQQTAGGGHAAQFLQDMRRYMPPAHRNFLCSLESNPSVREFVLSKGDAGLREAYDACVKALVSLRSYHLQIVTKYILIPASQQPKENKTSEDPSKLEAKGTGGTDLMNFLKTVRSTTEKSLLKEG

| IC50 | Structure (SMILES) |
| --- | --- |
| < 1 µM | O/N=C(/CCC1CCCC1)Nc1cccc(Cl)c1 |
| < 1 µM | CCCCC/C(=N/O)Nc1cccc(Cl)c1 |
| < 10 µM | OCCCC/C(=N/O)Nc1cccc(Cl)c1 |
| < 10 µM | CC/C(=N/O)Nc1cccc(Cl)c1 |
| < 10 µM | O/N=C(/CC(O)C1CCCCC1)Nc1cc(Cl)cc(Cl)c1 (stereo not drawn) |
| < 100 µM | O/N=C(/CC(O)C1CCCCC1)Nc1cccc(F)c1 (stereo not drawn) |
| < 10 µM | O/N=C(/CC1CCCO1)Nc1cccc(Cl)c1 (stereo not drawn) |
| < 100 µM | O/N=C(/CC(O)C1CCCCC1)Nc1cc(F)cc(Cl)c1 (stereo not drawn) |
| < 1 µM | O/N=C(/CC1CCCCC1)Nc1cccc(Cl)c1 |
| < 1 µM | O/N=C(/CCC1CCCCC1)Nc1cccc(Cl)c1 |
| < 1 µM | CCCC/C(=N/O)Nc1cccc(Cl)c1 |
| < 1 µM | CC(C)CC/C(=N/O)Nc1cccc(Cl)c1 |
| < 100 µM | O/N=C(/CC(O)C1CCCCC1)Nc1ccc(Cl)c(F)c1 (stereo not drawn) |
| < 1 µM | O/N=C(/CC1CCCC1)Nc1cccc(Cl)c1 |
| < 10 µM | O/N=C(\Nc1cccc(Cl)c1)C1CCCC1 |
| < 1 µM | CC(C)C/C(=N/O)Nc1cccc(Cl)c1 |
| < 100 µM | CC(C)(C)C/C(=N/O)Nc1cccc(Cl)c1 |
| < 1 µM | O/N=C(/CC1CC1)Nc1cccc(Cl)c1 |
| < 10 µM | O/N=C(/CC1CCCC1O)Nc1cccc(Cl)c1 (stereo not drawn) |
| < 100 µM | O/N=C(/CC(O)C1CCCCC1)Nc1ccc(F)c(F)c1 (stereo not drawn) |
| < 1 µM | CCC/C(=N/O)Nc1cccc(Cl)c1 |
| < 10 µM | O/N=C(/CC(O)C1CCCCC1)Nc1cccc(Cl)c1 (stereo not drawn) |
| < 100 µM | O/N=C(/CC(O)C1CCCCC1)Nc1cccc(C(F)(F)F)c1 (stereo not drawn) |
| < 1 µM | CCCCCC/C(=N/O)Nc1cccc(Cl)c1 |

Source: patent US10987322B2, “Immunoregulatory agents” (FLEXUS BIOSCIENCES, INC., priority 2014, dated 2021)
